Data reported in patent US20260365653A1, “IRREVERSIBLE MUTEGFR INHIBITORS” (Bayer Aktiengesellschaft, priority 2022, published 2026).

Columns and labels:
BA/F3 (insSVD) cells = assay: Ba/F3-EGFR-insSVD cell survival assay (Cell Titer-Glo); assay type: cell-based; settings: Mus musculus, BaF3, 48 h, Table 3a, cell survival, Cell Titer-Glo, with 10 ng/ml EGF, without IL-3
How it was run: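 CellTiter-Glo luminescence read after 48 h compound exposure at 37° C. Cells: IL-3-independent Ba/F3 lines transduced with EGFR-insSVD or EGFR-insSVD T790M, maintained on 10 ng/ml EGF and seeded at 4000 per well.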

[1] = target: T1, mutEGFR (D770_N771insSVD) (Homo sapiens, UniProt P00533, DUP768-770); assay: Exon20-Mutant-EGFR (D770_N771insSVD) kinase assay (TR-FRET); assay type: biochemical; settings: mutEGFR (D770_N771insSVD) kinase assay IC50, Table 2a; D770_N771insSVD; 2 mM ATP
T1 construct: GST-EGFR #3 (SVD between D770 and N771); made in house; host or cells: Sf9 insect cells (baculovirus)

[2] = target: T2, mutEGFR (D770_N771insNPG, T790) (Homo sapiens, UniProt P00533, INS770NPG/T790M); assay: mutEGFR (D770_N771insNPG, T790) kinase assay; assay type: biochemical; settings: Table 2a, D770_N771insNPG
T2 construct: exact insNPG construct not described; in-house EGFR proteins were N-terminal GST fusions from baculovirus/insect cells (borders R669-A1210 given only for WT, insSVD, insASV)
Excerpt: The different EGFR proteins used in the biochemical kinase activity inhibition assays were generated inhouse by expression in insect cells using Baculo Virus system and subsequent purification as described in the following paragraphs.
The cDNAs encoding the various protein sequences from human EGFR human (P00533) were optimized for expression in eukaryotic cells and synthesized by the GeneArt Technology at Life Technologies.

T1 sequence (P00533 with tags, fused parts or gaps DUP768-770): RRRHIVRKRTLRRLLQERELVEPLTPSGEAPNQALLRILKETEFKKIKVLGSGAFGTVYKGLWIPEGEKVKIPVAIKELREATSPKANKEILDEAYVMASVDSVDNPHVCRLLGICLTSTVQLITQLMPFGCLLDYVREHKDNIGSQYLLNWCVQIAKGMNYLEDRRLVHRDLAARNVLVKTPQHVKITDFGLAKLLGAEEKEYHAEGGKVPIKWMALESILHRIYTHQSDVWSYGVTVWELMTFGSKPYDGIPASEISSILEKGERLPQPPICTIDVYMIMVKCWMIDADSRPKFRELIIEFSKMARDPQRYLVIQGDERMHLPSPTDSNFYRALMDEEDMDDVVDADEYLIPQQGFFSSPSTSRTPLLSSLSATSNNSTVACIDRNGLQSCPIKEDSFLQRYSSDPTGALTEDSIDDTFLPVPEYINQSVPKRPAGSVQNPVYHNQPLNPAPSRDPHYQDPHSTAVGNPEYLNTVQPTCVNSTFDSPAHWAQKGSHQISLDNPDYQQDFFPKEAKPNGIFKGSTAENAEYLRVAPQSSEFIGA
T2 sequence (P00533 with tags, fused parts or gaps INS770NPG/T790M limits assumed): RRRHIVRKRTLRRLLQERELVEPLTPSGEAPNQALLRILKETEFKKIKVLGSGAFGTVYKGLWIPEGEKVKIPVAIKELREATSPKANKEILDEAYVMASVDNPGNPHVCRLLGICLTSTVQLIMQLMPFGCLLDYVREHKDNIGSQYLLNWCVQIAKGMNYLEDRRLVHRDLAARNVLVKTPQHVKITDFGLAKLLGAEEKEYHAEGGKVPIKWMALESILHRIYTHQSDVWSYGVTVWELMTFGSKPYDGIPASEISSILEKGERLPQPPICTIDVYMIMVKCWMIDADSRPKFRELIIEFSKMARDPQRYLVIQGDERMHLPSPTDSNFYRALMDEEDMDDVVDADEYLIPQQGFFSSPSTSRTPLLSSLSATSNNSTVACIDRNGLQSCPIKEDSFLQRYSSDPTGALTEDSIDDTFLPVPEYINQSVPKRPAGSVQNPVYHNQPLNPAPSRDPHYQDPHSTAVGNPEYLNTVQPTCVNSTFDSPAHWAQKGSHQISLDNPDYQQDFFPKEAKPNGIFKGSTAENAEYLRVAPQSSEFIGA

SMILES | IC50 [1] [nM] | IC50 [2] [nM] | IC50 (BA/F3 (insSVD) cells) [nM]
CN(C)C/C=C/C(=O)N1CCn2nc(-c3ccc(Cl)c(Cl)c3)c(-c3ccncc3)c2C1 [Example 29, (2E)-1-[2-(3,4-dichlorophenyl)-3-(pyridin-4-yl)-6,7-dihydropyrazolo[1,5-a]pyrazin-5(4H)-yl]-4-(dimethylamino)but-2-en-1-one] | 1.19 | 1.54 | 422
COc1ccc(-c2nn3c(c2-c2ccncc2)CN(C(=O)/C=C/CN(C)C)CC3)cc1 [Example 30, (2E)-4-(dimethylamino)-1-[2-(4-methoxyphenyl)-3-(pyridin-4-yl)-6,7-dihydropyrazolo[1,5-a]pyrazin-5(4H)-yl]but-2-en-1-one] | 7.25 | 23.7 | 1080
COc1ccc(-c2nn3c(c2-c2ccncc2)CN(C(=O)/C=C/CN(C)C)CC3)cc1F [Example 31, (2E)-4-(dimethylamino)-1-[2-(3-fluoro-4-methoxyphenyl)-3-(pyridin-4-yl)-6,7-dihydropyrazolo[1,5-a]pyrazin-5(4H)-yl]but-2-en-1-one] | 4.05 | 18.8 | 874
CCc1cc(-c2nn3c(c2-c2ccncc2)CN(C(=O)/C=C/CN(C)C)CC3)ccc1Cl [Example 32, formic acid-(2E)-1-[2-(4-chloro-3-ethylphenyl)-3-(pyridin-4-yl)-6,7-dihydropyrazolo[1,5-a]pyrazin-5(4H)-yl]-4-(dimethylamino)but-2-en-1-one (1:1)] | 1.31 | 3.89 | 1070
CN(C)C/C=C/C(=O)N1CCn2nc(-c3ccc(C#N)cc3)c(-c3ccncc3)c2C1 [Example 33, 4-{5-[(2E)-4-(dimethylamino)but-2-enoyl]-3-(pyridin-4-yl)-4,5,6,7-tetrahydropyrazolo[1,5-a]pyrazin-2-yl}benzonitrile] | 8.35 | 67 | 1840
CN(C)C/C=C/C(=O)N1CCn2nc(-c3ccc(C(F)(F)F)cc3)c(-c3ccncc3)c2C1 [Example 34, (2E)-4-(dimethylamino)-1-[3-(pyridin-4-yl)-2-[4-(trifluoromethyl)phenyl]-6,7-dihydropyrazolo[1,5-a]pyrazin-5(4H)-yl]but-2-en-1-one] | 1.37 | 4.32 | 198
CN(C)C/C=C/C(=O)N1CCn2nc(-c3ccc(Cl)cc3CO)c(-c3ccncc3)c2C1 [Example 35, (2E)-1-{2-[4-chloro-2-(hydroxymethyl)phenyl]-3-(pyridin-4-yl)-6,7-dihydropyrazolo[1,5-a]pyrazin-5(4H)-yl}-4-(dimethylamino)but-2-en-1-one] | 1.36 | 2.94 | 802
C=CC(=O)N1CCn2nc(-c3ccc(OC)cc3)c(-c3ccncc3)c2C1 [Example 41, 1-[2-(4-methoxyphenyl)-3-(pyridin-4-yl)-6,7-dihydropyrazolo[1,5-a]pyrazin-5(4H)-yl]prop-2-en-1-one] | 1.09 | 3.22 | 37.2
C=CC(=O)N1CCn2nc(-c3ccc(C#N)cc3)c(-c3ccncc3)c2C1 [Example 43, 4-[5-acryloyl-3-(pyridin-4-yl)-4,5,6,7-tetrahydropyrazolo[1,5-a]pyrazin-2-yl]benzonitrile] | 3.16 | 18.5 | 131
C=CC(=O)N1CCn2nc(-c3ccc(C(F)(F)F)cc3)c(-c3ccncc3)c2C1 [Example 44, 1-[3-(pyridin-4-yl)-2-[4-(trifluoromethyl)phenyl]-6,7-dihydropyrazolo[1,5-a]pyrazin-5(4H)-yl]prop-2-en-1-one] | 0.989 | 2.8 | 39
C=CC(=O)N1CCn2nc(-c3ccc(C(F)(F)F)cc3)c(-c3ccnc4[nH]cc(C)c34)c2C1 [Example 48, 1-[3-(3-methyl-1H-pyrrolo[2,3-b]pyridin-4-yl)-2-[4-(trifluoromethyl)phenyl]-6,7-dihydropyrazolo[1,5-a]pyrazin-5(4H)-yl]prop-2-en-1-one] | 242 | 1270 | 90.5
C=CC(=O)N1CCn2nc(-c3ccc(C(F)(F)F)cc3)c(-c3ccnc4[nH]c(C)cc34)c2C1 [Example 54, 1-[3-(2-methyl-1H-pyrrolo[2,3-b]pyridin-4-yl)-2-[4-(trifluoromethyl)phenyl]-6,7-dihydropyrazolo[1,5-a]pyrazin-5(4H)-yl]prop-2-en-1-one] | 89 | 3470 | 498
C=CC(=O)N1CCn2nc(-c3ccc(C(F)(F)F)cc3)c(-c3ccncc3C3CC3)c2C1 [Example 55, 1-[3-(3-cyclopropylpyridin-4-yl)-2-[4-(trifluoromethyl)phenyl]-6,7-dihydropyrazolo[1,5-a]pyrazin-5(4H)-yl]prop-2-en-1-one] | 350 | 2540 | 744
C=CC(=O)N1CCn2nc(-c3ccc(C(F)(F)F)cc3)c(-c3ccnc4[nH]c(C)c(C)c34)c2C1 [Example 56, 1-[3-(2,3-dimethyl-1H-pyrrolo[2,3-b]pyridin-4-yl)-2-[4-(trifluoromethyl)phenyl]-6,7-dihydropyrazolo[1,5-a]pyrazin-5(4H)-yl]prop-2-en-1-one] | 281 | 670 | 124

More lines, main results first:

IC50 [1] [nM] | IC50 [2] [nM] | SMILES | IC50 (BA/F3 (insSVD) cells) [nM]
0.554 | 0.489 | C=CC(=O)N1CCn2nc(-c3ccc(OC)c(Cl)c3)c(-c3ccncc3)c2C1 [Example 38, 1-[2-(3-chloro-4-methoxyphenyl)-3-(pyridin-4-yl)-6,7-dihydropyrazolo[1,5-a]pyrazin-5(4H)-yl]prop-2-en-1-one] | 32.1
37.6 | 18.3 | C=CC(=O)N1CCn2nc(-c3ccccc3OC)c(-c3ccncc3)c2C1 [Example 39, 1-[2-(2-methoxyphenyl)-3-(pyridin-4-yl)-6,7-dihydropyrazolo[1,5-a]pyrazin-5(4H)-yl]prop-2-en-1-one] | 622
1.01 | 6.31 | C=CC(=O)N1CCn2nc(-c3ccc(OC)c(F)c3)c(-c3ccncc3)c2C1 [Example 42, 1-[2-(3-fluoro-4-methoxyphenyl)-3-(pyridin-4-yl)-6,7-dihydropyrazolo[1,5-a]pyrazin-5(4H)-yl]prop-2-en-1-one] | 53.6
973 | 158 | C=CC(=O)N1CCn2nc(-c3cccc(C#N)c3)c(-c3ccnc4[nH]cc(C)c34)c2C1 [Example 45] | 218
770 | 555 | C=CC(=O)N1CCn2nc(-c3ccc(OC)c(F)c3)c(-c3ccnc4[nH]cc(C)c34)c2C1 [Example 46, 1-[2-(3-fluoro-4-methoxyphenyl)-3-(3-methyl-1H-pyrrolo[2,3-b]pyridin-4-yl)-6,7-dihydropyrazolo[1,5-a]pyrazin-5(4H)-yl]prop-2-en-1-one] | 170
864 | 666 | C=CC(=O)N1CCn2nc(-c3ccc(OC)cc3)c(-c3ccnc4[nH]cc(C)c34)c2C1 [Example 47, 1-[2-(4-methoxyphenyl)-3-(3-methyl-1H-pyrrolo[2,3-b]pyridin-4-yl)-6,7-dihydropyrazolo[1,5-a]pyrazin-5(4H)-yl]prop-2-en-1-one] | 231
112 | 121 | C=CC(=O)N1CCn2nc(-c3ccc(Cl)cc3F)c(-c3ccnc4[nH]cc(C)c34)c2C1 [Example 49, 1-[2-(4-chloro-2-fluorophenyl)-3-(3-methyl-1H-pyrrolo[2,3-b]pyridin-4-yl)-6,7-dihydropyrazolo[1,5-a]pyrazin-5(4H)-yl]prop-2-en-1-one] | 71.7
8.5 | 135 | C=CC(=O)N1CCn2nc(-c3ccc(Cl)cc3F)c(-c3ccncc3C)c2C1 [Example 50, 1-[2-(4-chloro-2-fluorophenyl)-3-(3-methylpyridin-4-yl)-6,7-dihydropyrazolo[1,5-a]pyrazin-5(4H)-yl]prop-2-en-1-one] | 156
6.64 | 25.7 | C=CC(=O)N1CCn2nc(-c3ccc(Cl)cc3F)c(-c3c(F)cnc4[nH]ccc34)c2C1 [Example 51, 1-[2-(4-chloro-2-fluorophenyl)-3-(5-fluoro-1H-pyrrolo[2,3-b]pyridin-4-yl)-6,7-dihydropyrazolo[1,5-a]pyrazin-5(4H)-yl]prop-2-en-1-one] | 54.7
6.05 | 22.7 | C=CC(=O)N1CCn2nc(-c3ccc(Cl)cc3F)c(-c3ccnc4[nH]cc(F)c34)c2C1 [Example 52, 1-[2-(4-chloro-2-fluorophenyl)-3-(3-fluoro-1H-pyrolo[2,3-b]pyridin-4-yl)-6,7-dihydropyrazolo[1,5-a]pyrazin-5(4H)-yl]prop-2-en-1-one] | 35.5
0.997 | 7.05 | C=CC(=O)N1CCn2nc(-c3ccc(Cl)cc3F)c(-c3ccnc(NC)c3)c2C1 [Example 53, 1-[2-(4-chloro-2-fluorophenyl)-3-[2-(methylamino)pyridin-4-yl]-6,7-dihydropyrazolo[1,5-a]pyrazin-5(4H)-yl]prop-2-en-1-one] | 44.2
